# Laboratory results published in patent publication US20260000642A1 (Tay Therapeutics Limited, priority 2022, published 2026).
# “And” between values parts separate entries of the source, which are not always exact repeats. Equal values may be shown once.
# System: collagen-induced arthritis in Lewis rats
# Test: Collagen-induced arthritis (CIA) model in rats: body weight, paw volume, clinical scores, clinical observations
# [1] = Group 5 (CIA + Example 101 3 mg/kg), Day 13, individual animals, 3 mg/kg
# [2] = Group 5 (CIA + Example 101 3 mg/kg), Day 16, individual animals, 3 mg/kg
# [3] = Group 5 (CIA + Example 101 3 mg/kg), Day 17, individual animals, 3 mg/kg
# [4] = Group 5 (CIA + Example 101 3 mg/kg), Day 20, individual animals, 3 mg/kg
# [5] = Group 6 (CIA + Example 101 10 mg/kg), Day 2, individual animals, 10 mg/kg
# [6] = Group 6 (CIA + Example 101 10 mg/kg), Day 5, individual animals, 10 mg/kg
# [7] = Group 6 (CIA + Example 101 10 mg/kg), Day 6, individual animals, 10 mg/kg
# [8] = Group 6 (CIA + Example 101 10 mg/kg), Day 7, individual animals, 10 mg/kg
# [9] = Group 6 (CIA + Example 101 10 mg/kg), Day 13, individual animals, 10 mg/kg
# [10] = Group 6 (CIA + Example 101 10 mg/kg), Day 15, individual animals, 10 mg/kg
# [11] = Group 6 (CIA + Example 101 10 mg/kg), Day 18, individual animals, 10 mg/kg
# [12] = Group 6 (CIA + Example 101 10 mg/kg), Day 19, individual animals, 10 mg/kg
# [13] = Group 6 (CIA + Example 101 10 mg/kg), Day 20, individual animals, 10 mg/kg
# [14] = Group 7 (CIA + Example 101 30 mg/kg), Day 1, individual animals, 30 mg/kg
# [15] = Group 7 (CIA + Example 101 30 mg/kg), Day 9, individual animals, 30 mg/kg
# [16] = Group 7 (CIA + Example 101 30 mg/kg), Day 11, individual animals, 30 mg/kg
# [17] = Group 7 (CIA + Example 101 30 mg/kg), Day 12, individual animals, 30 mg/kg
# [18] = Group 7 (CIA + Example 101 30 mg/kg), Day 13, individual animals, 30 mg/kg
# [19] = Group 7 (CIA + Example 101 30 mg/kg), Day 15, individual animals, 30 mg/kg
# [20] = Group 7 (CIA + Example 101 30 mg/kg), Day 17, individual animals, 30 mg/kg
# [21] = Group 7 (CIA + Example 101 30 mg/kg), Day 20, individual animals, 30 mg/kg
# [22] = Group 7 (CIA + Example 101 30 mg/kg), Day 21, individual animals, 30 mg/kg
# Description: Prior to be randomly placed in treatment groups, animals were weighed, and paw volume was measured. Once randomly assigned to treatment groups, on Day 0, animals in groups 2-9 were immunized by subcutaneous injection at the base of the tail. The immunization comprised 100 μL of the CFA+Collagen emulsion (prepared according to the method in Experimental Method A). Animals in group one received no immunization. Seven days after the first injection, animals in groups 2-9 received a booster immunization comprising 200 μL of the IFA+Collagen emulsion (prepared according to the method in Experimental Method A).
# Starting on Day 0, animals in group 1 and 2 were administered daily doses of the vehicle per os (P.O.) for 21 days.
# The twice daily doses for animals in groups 4-9 were 8 hours apart (e.g., the first dose at 8:00 AM and the second dose at 4:00 PM).
# Body weight of all animals was recorded daily for the 21-day period. Blind clinical scores on all four limbs were conducted for all animals in the study. Animals were assessed prior to receiving their first dose of the compound or control, and scores for each limb were combined to a total daily score for each animal. Clinical score assessments were performed on Day 0, 6, 12, 13, 14, 15, 18, 19, and 21 (for a total of 9 daily scores).
# Paw volume was recorded for each animal on Day 0, 6, 12, 13, 14, 15, 18, 19, and 21 (for a total of 9 measurements). To measure paw volume, animals were gently held with one hand while the hind paw was placed into a plethysmometer with the other hand. Lipid displacement by the paw was recorded and used to represent paw volume.
# At the conclusion of the study (end of the 21-day period), animals were euthanized. Euthanasia occurred four hours after animals received their first dose on the morning of Day 21. Hind limbs were collected following euthanasia, with the left limb being used for H&E staining.
# All data measured and recorded was analyzed using SPSS 16.0 software. Groups were compared using one-way ANOVA and significance was set at p<0.05.
# Arthritis was induced in Lewis rats by immunizing animals with the CFA+Collagen emulsion via subcutaneous injection at the base of the tail on day 0. Seven days after the first immunization, animals received a booster immunization with the IFA+Collagen emulsion via subcutaneous injection at the base of the tail.
# Starting on day 0, animals in group 1 and 2 were administered daily doses of the vehicle per os (P.O.) for 21 days. […] The twice daily doses for animals in groups 4-9 were 8 hours apart (e.g., the first dose at 8:00 AM and the second dose at 4:00 PM).
structure (smiles),measurement,setting,value
"CNC(=O)c1[nH]c(C(=O)NC2CCC2)cc1O[C@@H](C)c1ccccc1 [Example 101, N^5-cyclobutyl-N^2-methyl-3-(1-phenylethoxy)-1H-pyrrole-2,5-dicarboxamide]",Animal body weight,[1],180 g
same,Animal body weight percent change,[1],9.70%
same,Animal body weight,"Group 5 (CIA + Example 101 3 mg/kg), Day 14, individual animals, 3 mg/kg",180 g
same,Animal body weight,[2],150 g and 170 g
same,Animal body weight percent change,[2],0.58%
same,Animal body weight,[3],170 g
same,Animal body weight percent change,[3],−4.40%
same,Animal body weight percent change,"Group 5 (CIA + Example 101 3 mg/kg), Day 18, individual animals, 3 mg/kg",−4.40% and 0.00%
same,Animal body weight,"Group 5 (CIA + Example 101 3 mg/kg), Day 19, individual animals, 3 mg/kg",150 g and 170 g
same,Animal body weight,[4],160 g and 170 g
same,Animal body weight percent change,[4],−4.40% and 0.60%
same,Animal body weight percent change,"Group 5 (CIA + Example 101 3 mg/kg), Day 21, individual animals, 3 mg/kg",0.60%
same,Animal body weight percent change,"Group 6 (CIA + Example 101 10 mg/kg), Day 0, individual animals",0.00%
same,Animal body weight,"Group 6 (CIA + Example 101 10 mg/kg), Day 0, individual animals, 10 mg/kg",170 g and 160 g
same,Animal body weight percent change,"Group 6 (CIA + Example 101 10 mg/kg), Day 1, individual animals, 10 mg/kg",0.00% and 0.64% and 5.00%
same,Animal body weight,[5],160 g
same,Animal body weight percent change,[5],0.62%
same,Animal body weight percent change,"Group 6 (CIA + Example 101 10 mg/kg), Day 3, individual animals, 10 mg/kg",0.59%
same,Animal body weight percent change,"Group 6 (CIA + Example 101 10 mg/kg), Day 4, individual animals, 10 mg/kg",0.58% and 0.59% and 3.70% and −0.61% and 7.50%
same,Animal body weight,[6],170 g and 160 g
same,Animal body weight percent change,[6],−0.62%
same,Animal body weight,[7],170 g
same,Animal body weight percent change,[7],−1.76% and 10.00%
same,Animal body weight,[8],180 g
same,Animal body weight percent change,[8],−0.61%
same,Animal body weight,"Group 6 (CIA + Example 101 10 mg/kg), Day 8, individual animals, 10 mg/kg",180 g
same,Animal body weight percent change,"Group 6 (CIA + Example 101 10 mg/kg), Day 9, individual animals, 10 mg/kg",3.70%
same,Animal body weight percent change,"Group 6 (CIA + Example 101 10 mg/kg), Day 10, individual animals, 10 mg/kg",0.00%
same,Animal body weight percent change,"Group 6 (CIA + Example 101 10 mg/kg), Day 11, individual animals, 10 mg/kg",−0.59% and 0.62%
same,Animal body weight,[9],150 g and 160 g
same,Animal body weight percent change,[9],0.62% and −0.62%
same,Animal body weight,[10],170 g
same,Animal body weight percent change,[10],−0.62%
same,Animal body weight percent change,"Group 6 (CIA + Example 101 10 mg/kg), Day 16, individual animals, 10 mg/kg",0.00% and −0.62%
same,Animal body weight percent change,"Group 6 (CIA + Example 101 10 mg/kg), Day 17, individual animals, 10 mg/kg",0.62% and 20.00%
same,Animal body weight,[11],160 g
same,Animal body weight percent change,[11],0.00%
same,Animal body weight,[12],170 g and 160 g (2×)
same,Animal body weight percent change,[12],−0.58%
same,Animal body weight,[13],170 g
same,Animal body weight percent change,[13],−0.62% and −0.61%
same,Animal body weight percent change,"Group 6 (CIA + Example 101 10 mg/kg), Day 21, individual animals, 10 mg/kg",−0.62%
same,Animal body weight percent change,"Group 7 (CIA + Example 101 30 mg/kg), Day 0, individual animals",0.00%
same,Animal body weight,[14],160 g and 170 g
same,Animal body weight percent change,[14],−0.61% and 1.20%
same,Animal body weight,"Group 7 (CIA + Example 101 30 mg/kg), Day 2, individual animals, 30 mg/kg",170 g
same,Animal body weight,"Group 7 (CIA + Example 101 30 mg/kg), Day 3, individual animals, 30 mg/kg",160 g
same,Animal body weight,"Group 7 (CIA + Example 101 30 mg/kg), Day 4, individual animals, 30 mg/kg",160 g
same,Animal body weight percent change,"Group 7 (CIA + Example 101 30 mg/kg), Day 5, individual animals, 30 mg/kg",0.00% and 0.61%
same,Animal body weight percent change,"Group 7 (CIA + Example 101 30 mg/kg), Day 7, individual animals, 30 mg/kg",0.61%
same,Animal body weight percent change,"Group 7 (CIA + Example 101 30 mg/kg), Day 8, individual animals, 30 mg/kg",7.10% and −0.61% (2×) and −0.60%
same,Animal body weight,[15],170 g
same,Animal body weight percent change,[15],−0.58%
same,Animal body weight percent change,"Group 7 (CIA + Example 101 30 mg/kg), Day 10, individual animals, 30 mg/kg",−0.58% and 0.00% (2×)
same,Animal body weight,[16],170 g
same,Animal body weight percent change,[16],0.61%
same,Animal body weight,[17],170 g and 160 g
same,Animal body weight percent change,[17],1.20%
same,Animal body weight,[18],170 g and 160 g
same,Animal body weight percent change,[18],−0.61% and 1.30%
same,Animal body weight percent change,"Group 7 (CIA + Example 101 30 mg/kg), Day 14, individual animals, 30 mg/kg",2.60%
same,Animal body weight,[19],170 g and 160 g
same,Animal body weight percent change,[19],0.00% (2×) and 3.90%
same,Animal body weight percent change,"Group 7 (CIA + Example 101 30 mg/kg), Day 16, individual animals, 30 mg/kg",0.65%
same,Animal body weight,[20],170 g
same,Animal body weight percent change,[20],1.30%
same,Animal body weight percent change,"Group 7 (CIA + Example 101 30 mg/kg), Day 18, individual animals, 30 mg/kg",−0.58% and −1.30%
same,Animal body weight percent change,"Group 7 (CIA + Example 101 30 mg/kg), Day 19, individual animals, 30 mg/kg",−1.20%
same,Animal body weight,[21],160 g
same,Animal body weight percent change,[21],6.10%
same,Animal body weight,[22],150 g
same,Animal body weight percent change,[22],6.10% and −2.60%
